The target in the assay is T1, recombinant autotaxin (Homo sapiens, UniProt Q13822).
T1 construct: made in house; host or cells: Hi5 insect cells (baculovirus)
The assay can be described thus: Autotaxin test (enzyme test), Amplex Red fluorescence with LPC substrate. The assay is classed as biochemical. Conditions: autotaxin inhibition (enzyme test); for remaining activity at 10 µM: 10 μM compound, read-out: % Control at 10 μM. The essentials: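 Activity was inferred from H2O2 made from released choline, detected as Amplex Red/peroxidase fluorescence (485 nm excitation, 612 nm emission, kinetic read). Beforehand, Hi5-expressed autotaxin sat with compound 30 min at 22° C, then hydrolysed 75 μM final LPC for 90 min at 37° C, pH 8 Tris buffer.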

Each structure is given as a SMILES string. A value given as a limit tells only on which side of the number the result lay.

The values that follow come from patent US20120115852A1, “HETEROCYCLIC COMPOUNDS AS AUTOTAXIN INHIBITORS” (Merck Patent Gesellschaft Mit Beschrankter Haftung, priority 2009, published 2012).

Take `O=C1Nc2ccc(-c3ccc(Cl)cc3)cc2C(=O)N2CCN(C(=O)[C@@H](O)C3CCCCC3)CC12` (stereo partly drawn) [Compound A113, 7-(4-Chlorophenyl)-2-((S)-2-cyclohexyl-2-hydroxy-acetyl)-1,3,4,11a-tetrahydro-2H,10H-2,4a,10-triazadibenzo[a,d]cycloheptene-5,11-dione]: the remaining activity at 10 µM was -6% and the IC50 (in general, the point on the concentration scale where inhibition reaches its midpoint) is above 1000 nM. With `CC(C)(C)CC(=O)N1CCN2C(=O)c3cc(-c4cc(Cl)ccc4F)ccc3NC(=O)C2C1` (centres unmarked) [Compound A85, 7-(5-Chloro-2-fluorophenyl)-2-(3,3-dimethylbutyryl)-1,3,4,11a-tetrahydro-2H,10H-2,4a,10-triaza-dibenzo[a,d]cycloheptene-5,11-dione], the remaining activity at 10 µM worked out at 13% and the concentration for half-maximal inhibition (IC50) is above 1000 nM. In the case of `CC(C)(C)[C@H](O)C(=O)N1CCN2C(=O)c3cc(-c4ccc(Cl)cc4F)ccc3NC(=O)C2C1` (stereo partly drawn) [Compound A60, 7-(4-Chloro-2-fluorophenyl)-2-((S)-2-hydroxy-3,3-dimethylbutyryl)-1,3,4,11a-tetrahydro-2H,10H-2,4a,10-triazadibenzo[a,d]cycloheptene-5,11-dione], the remaining activity at 10 µM is -27% and the IC50 was in the range of 100 to 1000 nM. For the compound `O=C1Nc2ccc(-c3ccc(Cl)cc3F)cc2C(=O)N2CCN(C(=O)[C@@H]3CCCN3C3CCNCC3)CC12` (stereo partly drawn) [Compound A99, 7-(4-Chloro-2-fluorophenyl)-2-((S)-1-piperidin-4-yl-pyrrolidine-2-carbonyl)-1,3,4,11a-tetrahydro-2H,10H-2,4a,10-triazadibenzo[a,d]cycloheptene-5,11-dione], the remaining activity at 10 µM came out at 19% and the IC50 is above 1000 nM. `O=C1Nc2ccc(-c3ccc(Cl)cc3)cc2C(=O)N2CCN(C(=O)[C@@H]3CSCN3)C[C@H]12` [Compound A5, (R)-7-(4-Chlorophenyl)-2-((R)-thiazolidine-4-carbonyl)-1,3,4,11a-tetrahydro-2H,10H-2,4a,10-triazadibenzo[a,d]cycloheptene-5,11-dione]: the IC50 was above 1000 nM. `O=C1Nc2ccc(-c3ccc(Cl)cc3)cc2C(=O)N2CCN(C(=O)C(O)c3cccc(Cl)c3)CC12` (centres unmarked) [Compound A41, 7-(4-Chlorophenyl)-2-[2-(3-chlorophenyl)-2-hydroxyacetyl]-1,3,4,11a-tetrahydro-2H,10H-2,4a,10-triazadibenzo[a,d]cycloheptene-5,11-dione]: the remaining activity at 10 µM is 68% and the IC50 is above 1000 nM.

Regarding `CC(C)(C)CC(=O)N1CCN2C(=O)c3cc(-c4ccc(Cl)cc4F)ccc3N(CCN3CCOCC3)C(=O)[C@@H]2C1` [Compound A161], the remaining activity at 10 µM was found to be 3% and the IC50 lay in the range of 100 to 1000 nM. For the compound `CC(C)(C)CC(=O)N1CCN2C(=O)c3cc(Br)ccc3NC(=O)C2C1` (centres unmarked) [Compound A142], the remaining activity at 10 µM amounted to 85%.

As for `O=C1Nc2ccc(-c3ccc(Cl)cc3F)cc2C(=O)N2CCN(C(=O)[C@@H]3CCCN3C3CCCCC3)C[C@H]12` [Compound A121, (R)-7-(4-Chloro-2-fluorophenyl)-2-((S)-1-cyclohexyl-pyrrolidine-2-carbonyl)-1,3,4,11a-tetrahydro-2H,10H-2,4a,10-triazadibenzo[a,d]cycloheptene-5,11-dione], the remaining activity at 10 µM worked out at 32% and the IC50 is above 1000 nM. On to `O=C1Nc2ccc(-c3ccccc3F)cc2C(=O)N2CCN(C(=O)[C@@H](O)c3ccccc3)C[C@H]12` [Compound B3], for which the remaining activity at 10 µM was 47%. With `CN(C)c1ccc(C(=O)N2CCN3C(=O)c4cc(-c5ccccc5F)ccc4NC(=O)[C@H]3C2)cc1` [Compound B24], the remaining activity at 10 µM amounted to 83%. For `O=C1Nc2ccc(-c3ccc(Cl)cc3)cc2C(=O)N2CCN(C(=O)c3csc(-c4cccnc4)n3)CC12` (centres unmarked) [Compound A76, 7-(4-Chlorophenyl)-2-(2-pyridin-3-ylthiazole-4-carbonyl)-1,3,4,11a-tetrahydro-2H,10H-2,4a,10-triazadibenzo[a,d]cycloheptene-5,11-dione], the remaining activity at 10 µM was found to be 41% and the half-inhibitory concentration (IC50) was above 1000 nM. Take `CC(O)(C(=O)N1CCN2C(=O)c3cc(-c4ccc(Cl)cc4)ccc3NC(=O)C2C1)c1ccccc1` (centres unmarked) [Compound A39, 7-(4-Chlorophenyl)-2-(2-hydroxy-2-phenylpropionyl)-1,3,4,11a-tetrahydro-2H,10H-2,4a,10-triazadibenzo[a.d]cycloheptene-5,11-dione]: the remaining activity at 10 µM is 22% and the half-inhibitory concentration (IC50) is above 1000 nM. As for `CC(C)(C)CC(=O)N1CCN2C(=O)c3cc(-c4ccccc4F)ccc3NC(=O)[C@H]2C1` [Compound A7, (R)-2-(3,3-Dimethylbutyryl)-7-(2-fluorophenyl)-1,3,4,11a-tetrahydro-2H,10H-2,4a,10-triaza-dibenzo[a,d]cycloheptene-5,11-dione], the half-inhibitory concentration (IC50) was above 1000 nM. As to `O=C1Nc2ccc(-c3ccc(Cl)cc3)cc2C(=O)N2CCN(C(=O)[C@@H]3CCCN3C3CCNCC3)C[C@@H]12` [Compound A81, (S)-7-(4-Chlorophenyl)-2-((S)-1-piperidin-4-yl-pyrrolidine-2-carbonyl)-1,3,4,11a-tetrahydro-2H,10H-2,4a,10-triazadibenzo[a,d]cycloheptene-5,11-dione], the remaining activity at 10 µM amounted to 33%. On to `CN(C)CCN1C(=O)[C@H]2CN(C(=O)CC(C)(C)C)CCN2C(=O)c2cc(-c3ccc(Cl)cc3F)ccc21` [Compound A151], for which the remaining activity at 10 µM amounted to 16% and the half-maximal inhibitory concentration (IC50) was above 1000 nM.

Regarding `O=C1Nc2ccc(-c3ccc(Cl)c(F)c3)cc2C(=O)N2CCN(C(=O)[C@@H]3CCCN3C3CCNCC3)C[C@H]12` [Compound A102, (R)-7-(4-Chloro-3-fluorophenyl)-2-((S)-1-piperidin-4-ylpyrrolidine-2-carbonyl)-1,3,4,11a-tetrahydro-2H,10H-2,4a,10-triazadibenzo[a,d]cycloheptene-5,11-dione], the remaining activity at 10 µM was 7% and the IC50 was 100 to 1000 nM. Regarding `O=C1Nc2ccc(-c3ccccc3F)cc2C(=O)N2CCN(C(=O)c3cccs3)C[C@H]12` [Compound B23], the remaining activity at 10 µM came to 76%. For `CS(=O)(=O)CC(=O)N1CCN2C(=O)c3cc(-c4ccc(Cl)cc4)ccc3NC(=O)C2C1` (centres unmarked) [Compound A22, 7-(4-Chlorophenyl)-2-(2-methanesulfonylacetyl)-1,3,4,11a-tetrahydro-2H,10H-2,4a,10-triaza-dibenzo[a,d]cycloheptene-5,11-dione], the remaining activity at 10 µM came out at 61% and the IC50 is above 1000 nM. For `O=C1Nc2ccc(-c3ccc4c(c3)OCO4)cc2C(=O)N2CCN(C(=O)c3cccnc3)C[C@H]12` [Compound B12], the remaining activity at 10 µM came to 84%. As to `COc1ccc(-c2ccc3c(c2)C(=O)N2CCN(C(=O)[C@@H]4CSCN4)C[C@@H]2C(=O)N3)cc1` [Compound B22], the remaining activity at 10 µM stood at 71%. Take `O=C1Nc2ccc(-c3ccc(Cl)cc3)cc2C(=O)N2CCN(C(=O)C(O)c3ccc(Cl)cc3)CC12` (centres unmarked) [Compound A38, 7-(4-Chlorophenyl)-2-[2-(4-chlorophenyl)-2-hydroxyacetyl]-1,3,4,11a-tetrahydro-2H,10H-2,4a,10-triazadibenzo[a,d]cycloheptene-5,11-dione]: the remaining activity at 10 µM is 35% and the 50% inhibitory concentration (IC50) is above 1000 nM.
